Measurements taken from patent US9920339B2, “Methods, reagents and cells for biosynthesizing compounds” (INVISTA North America S.á r.l., priority 2014, dated 2018).

How the values were obtained:
[1] = biological target: T1, Escherichia coli pimeloyl-[acp] methyl ester methylesterase (SEQ ID NO: 1) (Escherichia coli, UniProt P13001); assay: pimeloyl-[acp] methyl ester methylesterase enzyme activity assay, glutaryl-CoA formation by LC-MS; assay type: biochemical; conditions: SEQ ID NO 1, 10 μM enzyme; 5 mM glutaryl-CoA methyl ester, 25 mM Tris.HCl pH 7.0, 30° C., 1 h
T1 construct: His-tag (C); made in house; host or cells: E. coli BL21[DE3], pET28b+
Protocol: A sequence encoding an C-terminal His-tag was added to the gene from Escherichia coli encoding the pimeloyl-[acp] methyl ester methylesterase of SEQ ID NO: 1 (see FIG. 10) such that C-terminal HIS tagged pimeloyl-[acp] methyl ester methylesterase could be produced. The resulting modified gene was cloned into a pET28b+ expression vector under control of the T7 promoter and the expression vector was transformed into a BL21[DE3] E. coli host. The resulting recombinant E. coli strain was cultivated at 37° C. in a 500 mL shake flask culture containing 100 mL LB media and antibiotic selection pressure, with shaking at 230 rpm. Each culture was induced overnight at 18° C. using 0.3 mM IPTG.
The pellet from each induced shake flask culture was harvested via centrifugation. Each pellet was resuspended and lysed via sonication. The cell debris was separated from the supernatant via centrifugation. The pimeloyl-[acp] methyl ester methylesterase was purified from the supernatant using Ni-affinity chromatography, buffer exchanged and concentrated into 20 mM HEPES buffer (pH=7.5) via ultrafiltration and stored at 4° C.
Enzyme activity assays converting glutaryl-CoA methyl ester to glutaryl-CoA were performed in triplicate in a buffer composed of a final concentration of 25 mM Tris.HCl buffer (pH=7.0) and 5 [mM] glutaryl-CoA methyl ester. […] The formation of glutaryl-CoA was quantified via LC-MS.

[2] = tested on: transaminase of SEQ ID NO 10; assay: ω-transaminase enzyme activity assay in the forward direction, glutarate semialdehyde plus L-alanine to pyruvate; assay type: biochemical, Pseudomonas syringae; conditions: 10 mM glutarate semialdehyde, 10 mM L-alanine, 100 μM pyridoxyl 5′ phosphate, pH 7.5, 25° C., 4 h, pyruvate by RP-HPLC
Protocol: A nucleotide sequence encoding an N-terminal His-tag was added to the genes from Chromobacterium violaceum and Rhodobacter sphaeroides encoding the ω-transaminases of SEQ ID NOs: 8 and 10 respectively (see FIG. 10) such that N-terminal HIS tagged ω-transaminases could be produced. Each of the resulting modified genes was cloned into a pET21a expression vector under control of the T7 promoter and each expression vector was transformed into a BL21[DE3] E. coli host. The resulting recombinant E. coli strains were cultivated at 37° C. in a 250 mL shake flask culture containing 50 mL LB media and antibiotic selection pressure, with shaking at 230 rpm. Each culture was induced overnight at 16° C. using 1 mM IPTG.
The pellet from each induced shake flask culture was harvested via centrifugation. Each pellet was resuspended and lysed via sonication. The cell debris was separated from the supernatant via centrifugation and the cell free extract was used immediately in enzyme activity assays.
Enzyme activity in the forward direction (i.e., glutarate semialdehyde to 5-aminopentanoate) was confirmed for the transaminase of SEQ ID NO 10. Enzyme activity assays were performed in a buffer composed of a final concentration of 50 mM HEPES buffer (pH=7.5), 10 mM glutarate semialdehyde, 10 mM L-alanine and 100 μM pyridoxyl 5′ phosphate. […] The formation of pyruvate was quantified via RP-HPLC.

[3] = tested on: Segniliparus rotundus carboxylate reductase (SEQ ID NO: 7), enhanced by the gene product of sfp; assay: carboxylate reductase enzyme activity assay, NADPH consumption at 340 nm; assay type: biochemical; conditions: SEQ ID NO 7 with sfp; 2 mM substrate, 10 mM MgCl2, 1 mM ATP, 1 mM NADPH, pH 7.5, room temperature, 20 min; absorbance at 340 nm
Protocol: (§1) A nucleotide sequence encoding a His-tag was added to the genes from Mycobacterium marinum, Mycobacterium smegmatis, Segniliparus rugosus, Mycobacterium massiliense, and Segniliparus rotundus that encode the carboxylate reductases of SEQ ID NOs: 2-4, 6 and 7, respectively (GenBank Accession Nos. ACC40567.1, ABK71854.1, EFV11917.1, EIV11143.1, and ADG98140.1, respectively) (see FIG. 10) such that N-terminal HIS tagged carboxylate reductases could be produced. Each of the modified genes was cloned into a pET Duet expression vector alongside a sfp gene encoding a His-tagged phosphopantetheine transferase from Bacillus subtilis, both under control of the T7 promoter. Each expression vector was transformed into a BL21[DE3] E. coli host along with the expression vectors from Example 3. Each resulting recombinant E. coli strain was cultivated at 37° C. in a 250 mL shake flask culture containing 50 mL LB media and antibiotic selection pressure, with shaking at 230 rpm. Each culture was induced overnight at 37° C. using an auto-induction media.
The pellet from each induced shake flask culture was harvested via centrifugation. Each pellet was resuspended and lysed via sonication. The cell debris was separated from the supernatant via centrifugation. […]
(§2) Enzyme activity (i.e., 5-hydroxypentanoate to 5-hydroxypentanal) assays were performed in triplicate in a buffer composed of a final concentration of 50 mM HEPES buffer (pH=7.5), 2 mM 5-hydroxypentanal, 10 mM MgCl2, 1 mM ATP, and 1 mM NADPH. […] The consumption of NADPH was monitored by absorbance at 340 nm.
The N-terminal His-tagged carboxylate reductase of SEQ ID NO 7 (see Example 2 and FIG. 10) was assayed using glutarate semialdehyde as substrate. […] The consumption of NADPH was monitored by absorbance at 340 nm.
The N-terminal His-tagged carboxylate reductase of SEQ ID NO 2-4 and 7 (see Example 2 and FIG. 10) was assayed using glutarate methyl ester as substrate. […] The consumption of NADPH was monitored by absorbance at 340 nm.

[4] = tested on: Chromobacterium violaceum ω-transaminase (SEQ ID NO: 8); assay: ω-transaminase enzyme activity assay, amine substrate plus pyruvate to L-alanine (cell free extract); assay type: biochemical; conditions: forward (amine-forming) direction, inferred from the reverse assay
[5] = biological target: T2, Mycobacterium marinum carboxylate reductase (SEQ ID NO: 2), enhanced by the gene product of sfp (Mycobacterium marinum, UniProt B2HN69); assay: carboxylate reductase enzyme activity assay, NADPH consumption at 340 nm; assay type: biochemical; conditions: SEQ ID NO 2 with sfp; 2 mM substrate, 10 mM MgCl2, 1 mM ATP, 1 mM NADPH, pH 7.5, room temperature, 20 min; absorbance at 340 nm
T2 construct: His-tag (N); made in house; host or cells: E. coli BL21[DE3], pET Duet
Protocol: as §1
(§3) The pellet from each induced shake flask culture was harvested via centrifugation. Each pellet was resuspended and lysed via sonication. The cell debris was separated from the supernatant via centrifugation. The carboxylate reductases and phosphopantetheine transferase were purified from the supernatant using Ni-affinity chromatography, diluted 10-fold into 50 mM HEPES buffer (pH=7.5) and concentrated via ultrafiltration.
(§4) Enzyme activity (i.e., 5-hydroxypentanoate to 5-hydroxypentanal) assays were performed in triplicate in a buffer composed of a final concentration of 50 mM HEPES buffer (pH=7.5), 2 mM 5-hydroxypentanal, 10 mM MgCl2, 1 mM ATP, and 1 mM NADPH. Each enzyme activity assay reaction was initiated by adding purified carboxylate reductase and phosphopantetheine transferase or the empty vector control to the assay buffer containing the 5-hydroxypentanoate and then incubated at room temperature for 20 min. The consumption of NADPH was monitored by absorbance at 340 nm.
(§5) The N-terminal His-tagged carboxylate reductase of SEQ ID NO 2-4 and 7 (see Example 2 and FIG. 10) was assayed using glutarate methyl ester as substrate. The enzyme activity assay was performed in triplicate in a buffer composed of a final concentration of 50 mM HEPES buffer (pH=7.5), 2 mM glutarate methyl ester, 10 mM MgCl2, 1 mM ATP and 1 mM NADPH. The enzyme activity assay reaction was initiated by adding purified carboxylate reductase and phosphopantetheine transferase or the empty vector control to the assay buffer containing the glutarate semialdehyde and then incubated at room temperature for 20 min. The consumption of NADPH was monitored by absorbance at 340 nm.

[6] = tested on: Mycobacterium smegmatis carboxylate reductase (SEQ ID NO: 3), enhanced by the gene product of sfp; assay: as above; assay type: biochemical; conditions: SEQ ID NO 3 with sfp; 2 mM substrate, 10 mM MgCl2, 1 mM ATP, 1 mM NADPH, pH 7.5, room temperature, 20 min; absorbance at 340 nm
Protocol: as §1, §3, §4, §5

[7] = tested on: Segniliparus rugosus carboxylate reductase (SEQ ID NO: 4), enhanced by the gene product of sfp; assay: as above; assay type: biochemical; conditions: SEQ ID NO 4 with sfp; 2 mM substrate, 10 mM MgCl2, 1 mM ATP, 1 mM NADPH, pH 7.5, room temperature, 20 min; absorbance at 340 nm
Protocol: as §1, §3, §4, §5

[8] = tested on: Mycobacterium massiliense carboxylate reductase (SEQ ID NO: 6), enhanced by the gene product of sfp; assay: as above; assay type: biochemical; conditions: SEQ ID NO 6 with sfp; 2 mM substrate, 10 mM MgCl2, 1 mM ATP, 1 mM NADPH, pH 7.5, room temperature, 20 min; absorbance at 340 nm
Protocol: as §1, with “media. […]” for “media.”
as §2

T1 sequence (P13001 whole entry): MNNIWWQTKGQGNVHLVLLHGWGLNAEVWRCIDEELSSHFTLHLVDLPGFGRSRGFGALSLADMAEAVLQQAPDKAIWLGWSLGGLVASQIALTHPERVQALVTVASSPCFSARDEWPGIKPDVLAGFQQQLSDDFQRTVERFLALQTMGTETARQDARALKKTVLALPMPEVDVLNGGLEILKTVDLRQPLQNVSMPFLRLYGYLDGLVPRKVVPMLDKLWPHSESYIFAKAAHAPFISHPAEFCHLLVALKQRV
T2 sequence (B2HN69 whole entry): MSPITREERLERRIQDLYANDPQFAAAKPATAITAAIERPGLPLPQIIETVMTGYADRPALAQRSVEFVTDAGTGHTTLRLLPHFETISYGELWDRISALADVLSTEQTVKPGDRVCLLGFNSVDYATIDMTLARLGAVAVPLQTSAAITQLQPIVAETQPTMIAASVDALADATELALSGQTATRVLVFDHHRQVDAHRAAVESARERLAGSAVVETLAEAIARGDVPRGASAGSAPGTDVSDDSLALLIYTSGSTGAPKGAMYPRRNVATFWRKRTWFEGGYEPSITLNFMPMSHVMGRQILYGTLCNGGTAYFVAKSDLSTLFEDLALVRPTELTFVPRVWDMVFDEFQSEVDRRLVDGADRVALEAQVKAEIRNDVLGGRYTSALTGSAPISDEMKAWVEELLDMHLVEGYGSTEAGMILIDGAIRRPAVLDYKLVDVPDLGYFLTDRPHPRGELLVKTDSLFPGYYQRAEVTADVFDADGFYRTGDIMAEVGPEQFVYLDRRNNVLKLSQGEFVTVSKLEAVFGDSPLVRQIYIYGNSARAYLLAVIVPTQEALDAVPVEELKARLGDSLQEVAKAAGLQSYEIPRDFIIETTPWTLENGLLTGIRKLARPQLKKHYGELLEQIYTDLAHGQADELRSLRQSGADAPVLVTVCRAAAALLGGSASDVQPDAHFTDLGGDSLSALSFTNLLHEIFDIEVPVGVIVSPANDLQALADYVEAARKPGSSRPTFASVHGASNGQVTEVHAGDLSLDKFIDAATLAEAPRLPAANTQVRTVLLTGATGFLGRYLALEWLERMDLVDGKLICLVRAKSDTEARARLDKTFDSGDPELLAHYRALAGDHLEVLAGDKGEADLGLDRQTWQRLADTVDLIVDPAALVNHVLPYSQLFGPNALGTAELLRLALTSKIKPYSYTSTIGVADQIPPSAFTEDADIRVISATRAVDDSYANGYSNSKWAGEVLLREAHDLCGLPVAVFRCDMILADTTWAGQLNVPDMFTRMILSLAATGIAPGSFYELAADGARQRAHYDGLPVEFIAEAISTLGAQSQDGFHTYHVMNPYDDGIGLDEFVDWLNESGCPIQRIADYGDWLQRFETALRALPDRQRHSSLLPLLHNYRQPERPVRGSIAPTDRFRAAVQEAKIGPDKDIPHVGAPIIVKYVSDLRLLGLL

COC(=O)CCCC(=O)SCCNC(=O)CCNC(=O)C(O)C(C)(C)COP(=O)(O)OP(=O)(O)OCC1OC(n2cnc3c(N)ncnc32)C(O)C1OP(=O)(O)O (stereo not drawn) [glutaryl-CoA methyl ester]
accepted: accepted as substrate, glutaryl-CoA synthesized as reaction product as confirmed via LC-MS [1]

O=CCCCC(=O)O [glutarate semialdehyde]
accepted: accepted as substrate as confirmed against the empty vector control [2] | accepted as substrate as confirmed against the empty vector control [3] | accepted as substrate, concluded from the reversibility of the ω-transaminase activity [4]

O=C(O)CCCCO [5-hydroxypentanoate]
accepted: accepted as substrate as confirmed against the empty vector control [5] | accepted as substrate as confirmed against the empty vector control [6] | accepted as substrate as confirmed against the empty vector control [7] | accepted as substrate as confirmed against the empty vector control [8] | accepted as substrate as confirmed against the empty vector control [3]
